US12396936B2, “Antimicrobial composition for tackling malodour” (Conopco, Inc., priority 2020, dated 2025)

Test system: S. hominis ATCC 27844
Test: Malodour assay using Lead acetate method (H2S blackening of lead acetate paper, ΔE by reflectometer)
Type: cell-based
Conditions: active wt % as printed per example; TSB with 0.1% L-cysteine-HCl, 37° C. overnight, triplicates; calculated from ΔE; control = 100
Experimental: The actives as shown in Table—1 below were subjected to malodour reduction assay as described below: • Malodour assay using Lead acetate method: Preparation of Bacterial Culture:
The test organisms was grown on TSA (Tryptic Soya Agar) plates overnight (22±2 hr). The organism was not more than 3 passages removed from the original source. The cell number was adjusted by re-suspending it in a suitable amount of physiological saline sufficient to achieve the required cell number based on optical density of the cells. The optical density (OD at 620 nm) of the cells were standardized to the cell number for the test organism using a spectrophotometer. A minimum final suspension of 1.0×10^8 CFU/mL was achieved by adjusting the OD to 0.2 in saline for the malodour assay.
A 1% Lead acetate solution was made in distilled water. […]
The malodour assay was adapted from the method of Moore et al, 2003 and modified into a 96 well plate format. […] The intensity of the colour was recorded using a reflectometer as L*a*b* values.
The difference between the initial and final L*a*b* values ΔE, was used to quantify malodour formation.) ΔE=√{square root over ((Li−Lf)^2+(ai−af)^2+(bi−bf)^2)}
The percentage malodour was calculated from ΔE measured using the above assay for the various actives or combinations.

SMILES: CCCCCCc1ccc(O)cc1O [B, Hexyl resorcinol]
- Malodour generation (%): 96%
